Reference: patent US8598374B2, “GPR120 receptor agonists and uses thereof” (Metabolex, Inc, priority 2008, dated 2013)

Target: T1, human GPR120 (Homo sapiens, UniProt Q5NUL3)
T1 construct: Flag (DYKDDDDK) (N); host or cells: HEK293 cells co-expressing Gqi5
T1 sequence (Q5NUL3 1-361): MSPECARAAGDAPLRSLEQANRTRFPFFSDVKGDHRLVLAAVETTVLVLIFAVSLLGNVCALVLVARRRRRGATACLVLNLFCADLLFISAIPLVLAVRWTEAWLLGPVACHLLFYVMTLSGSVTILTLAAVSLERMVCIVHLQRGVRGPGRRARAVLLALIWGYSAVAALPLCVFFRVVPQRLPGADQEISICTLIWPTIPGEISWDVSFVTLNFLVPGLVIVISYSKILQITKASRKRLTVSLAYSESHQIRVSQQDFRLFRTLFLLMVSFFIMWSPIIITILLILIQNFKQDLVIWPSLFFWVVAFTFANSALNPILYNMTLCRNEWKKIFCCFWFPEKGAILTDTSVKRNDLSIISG
Assay: Intracellular Ca2+ assay (FLIPR Calcium 4, Flexstation) in human GPR120 stable cell line
Format: cell-based
Conditions: % activity at 2.5 μM compared to the maximal activity of the compound of Example 25 at 2.5 μM; HEK293 cells co-expressing Gqi5
Method in brief: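 HEK293 cells co-expressing Gqi5 and stably expressing Flag-tagged human GPR120 were seeded at 70,000 cells per well in poly-D-lysine coated 96 well plates and loaded with FLIPR Calcium 4 dye for 50 minutes at 37° C. On a Flexstation, compound-induced fluorescence (excitation 485 nm, emission 525) was recorded for 90 seconds. Percent activity was expressed against a reference agonist's maximal activity at 2.5 μM, set as 100%.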

% Activity (Ex. 25 Reference Compound) [%] | SMILES
115.86 | CCc1cc(OCc2cc(F)cc3c2OC(C)(C)C3)c(F)cc1CCC(=O)O [Example 220, 3-(2-ethyl-5-fluoro-4-((5-fluoro-2,2-dimethyl-2,3-dihydrobenzofuran-7-yl)methoxy)phenyl)propanoic acid]
119.11 | [2H]C([2H])(Oc1ccc(CCC(=O)O)c(CC)c1F)c1cc(F)cc2c1OC(C)(C)C2 [Example 228, 3-(4-(dideuterio(5-fluoro-2,2-dimethyl-2,3-dihydrobenzofuran-7-yl)methoxy)-3-fluoro-2-ethylphenyl)propanoic acid]
86.25 | [2H]C([2H])(Oc1ccc(CC(C)C(=O)O)cc1F)c1cc(F)cc2c1OC(C)(C)C2 (stereo not drawn) [Example 230, 3-(4-(dideuterio(5-fluoro-2,2-dimethyl-2,3-dihydrobenzofuran-7-yl)methoxy)-3-fluorophenyl)-2-methylpropanoic acid]
101.01 | [2H]C([2H])(Oc1ccc(CC(C)C(=O)O)cc1C(F)(F)F)c1cc(F)cc2c1OC(C)(C)C2 (stereo not drawn) [Example 231, 3-(4-(dideuterio(5-fluoro-2,2-dimethyl-2,3-dihydrobenzofuran-7-yl)methoxy)-3-(trifluoromethyl)phenyl)-2-methylpropanoic acid]
159.62 | [2H]C([2H])(C(=O)O)C([2H])([2H])c1ccc(OCc2cc(Cl)cc3c2OC(C)(C)C3)c(F)c1 [Example 241, 3-(4-((5-chloro-2,2-dimethyl-2,3-dihydrobenzofuran-7-yl)methoxy)-3-fluorophenyl)-2,2,3,3-tetradeuteriopropanoic acid]
155.23 | [2H]C([2H])(C(=O)O)C([2H])([2H])c1ccc(OCc2cc(F)cc3c2OC(C)(C)C3)c(F)c1CC [Example 243, 3-(2-ethyl-3-fluoro-4-((5-fluoro-2,2-dimethyl-2,3-dihydrobenzofuran-7-yl)methoxy)phenyl)-2,2,3,3-tetradeuteriopropanoic acid]
10.23 | CC1(C)Cc2cc(Cl)cc(COc3ccccc3CCC(=O)O)c2O1 [Example 250, 3-(2-((5-chloro-2,2-dimethyl-2,3-dihydrobenzofuran-7-yl)methoxy)phenyl)propanoic acid]
61.14 | CC(Cc1cccc(OCc2cc(Cl)cc3c2OC(C)(C)C3)c1)C(=O)O (stereo not drawn) [Example 251, 3-(3-((5-chloro-2,2-dimethyl-2,3-dihydrobenzofuran-7-yl)methoxy)phenyl)-2-methylpropanoic acid]
146.14 | Cc1cc(CCC(=O)O)c(C)c(C)c1OCc1cc(F)cc2c1OC(C)(C)C2 [Example 254, 3-(4-((5-fluoro-2,2-dimethyl-2,3-dihydrobenzofuran-7-yl)methoxy)-2,3,5-trimethylphenyl) propanoic acid]
124.62 | CC(C)Oc1ccc(Cl)cc1COc1cc2c(cc1F)C(CC(=O)O)CC2 (stereo not drawn) [Example 257, 2-(5-((5-chloro-2-isopropoxybenzyl)oxy)-6-fluoro-2,3-dihydro-1H-inden-1-yl)acetic acid]
139.95 | CC(C)Oc1ccc(Cl)cc1COc1ccc2c(c1)CCC2CC(=O)O (stereo not drawn) [Example 258, 2-(5-((5-chloro-2-isopropoxybenzyl)oxy)-2,3-dihydro-1H-inden-1-yl)acetic acid]
118.5 | CC(C)Oc1ncccc1COc1ccc2c(c1)CCC2CC(=O)O (stereo not drawn) [Example 259, 2-(5-((2-isopropoxypyridin-3-yl)methoxy)-2,3-dihydro-1H-inden-1-yl)acetic acid]
16.67 | CC(Cc1cc(F)c(OCc2cccc3cn[nH]c23)c(F)c1)C(=O)O (stereo not drawn) [Example 260, 3-(4-((1H-indazol-7-yl)methoxy)-3,5-difluorophenyl)-2-methylpropanoic acid]
108.78 | Cc1nc2cccc(COc3c(F)cc(CC(C)C(=O)O)cc3F)c2o1 (stereo not drawn) [Example 261, 3-(3,5-difluoro-4-((2-methylbenzo[d]oxazol-7-yl)methoxy)phenyl)-2-methylpropanoic acid]
137.39 | CC1(C)Cc2cc(F)cc(COc3ccc4c(CC(=O)O)coc4c3)c2O1 [Example 262, 2-(6-((5-fluoro-2,2-dimethyl-2,3-dihydrobenzofuran-7-yl)methoxy)benzofuran-3-yl)acetic acid]
5.98 | CC1(C)Cc2cc(F)cc(COc3ccc4c(CC(=O)O)cc(=O)oc4c3)c2O1 [Example 263, 2-(7-((5-fluoro-2,2-dimethyl-2,3-dihydrobenzofuran-7-yl)methoxy)-2-oxo-2H-chromen-4-yl)acetic acid]
110.24 | CC(Cc1ccc(OCc2cc(F)cc3c2OC(C)(C)C3)cc1)C(=O)NO (stereo not drawn) [Example 264, 3-(4-((5-fluoro-2,2-dimethyl-2,3-dihydrobenzofuran-7-yl)methoxy)phenyl)-N-hydroxy-2-methylpropanamide]
42.73 | CC(C)C(CC(=O)O)c1ccc(OCc2cc(Cl)cc3c2OC(C)(C)C3)cc1 (stereo not drawn) [Example 266, 3-(4-((5-chloro-2,2-dimethyl-2,3-dihydrobenzofuran-7-yl)methoxy)phenyl)-4-methylpentanoic acid]
140.82 | Cc1c(CCC(=O)O)ccc(OCc2cc(Cl)cc3c2CC(C)(C)O3)c1C [Example 267, 3-(4-((6-chloro-2,2-dimethyl-2,3-dihydrobenzofuran-4-yl)methoxy)-2,3-dimethylphenyl)propanoic acid]

Tested on: C57BL/6J mice
Assay: Oral glucose tolerance test
Format: in vivo
Conditions: Table 2; 100 mg/kg oral gavage, 3 g/kg oral glucose, mice fasted 6 hours
Protocol: 8-10 week old male C57BL/6J mice (Harlan) were maintained on regular chow diet from Harlan (2018 Teklad Global). On the day of the experiment mice were fasted for 6 hours, then randomized into groups (n=10-15) to receive the tested GPR120 agonist at doses ranging from 100 mg/kg or the vehicle (1% CMC, 2% TWEEN 80). Compounds were delivered orally via gavage at 10 mL/kg. Blood glucose levels were measured by glucometer (Ascensia Elite XL, Bayer) at time −30 minutes before administration of compound. Blood glucose was measured again after 30 minutes (at time 0), and then the mice were dosed orally with 3 g/kg glucose at 10 mL/kg. […]
Glucose levels were plotted against time, and the incremental area under the curve (AUC) of the glucose excursion was determined from time 0 using Graphpad Prism 5.01. Outliers were excluded using Tukey's box plot outlier test, and statistical significance of differences in AUC of compound treatment compared to vehicle was determined by non-parametric Kruskal-Wallis test with Dunn's post test.
Tables 2 and 3 below show the mean percentage inhibition of the glucose excursion for the fifteen animals tested in each group. The compounds were tested at 100 mg/kg and the levels of blood glucose were determined in the presence and absence of the tested compounds. […]

SMILES | % reduction AUC glucose excursion at 100 mg/kg [%]
CC(Cc1ccc(OCc2cc(Cl)cc3c2OC(C)(C)C3)c(F)c1)C(=O)O (stereo not drawn) [Example 10, 3-(4-((5-chloro-2,2-dimethyl-2,3-dihydrobenzofuran-7-yl)methoxy)-3-fluorophenyl)-2-methylpropanoic acid] | 58.1

Target: T1, human GPR120
Assay: Intracellular Ca2+ assay (FLIPR Calcium 4, Flexstation) in human GPR120 stable cell line
Format: cell-based
Conditions: % activity at 5 μM compared to the maximal activity of GW9508 at 6.7 μM; HEK293 cells co-expressing Gqi5

% Activity (GW9508 Reference Compound) [%] | SMILES
72.21 | CC(Cc1ccc(OCc2cccc3c2CC(C)(C)O3)cc1)C(=O)O (stereo not drawn) [Example 17, 3-(4-((2,2-dimethyl-2,3-dihydrobenzofuran-4-yl)methoxy)phenyl)-2-methylpropanoic acid]
